The target of data set [1] is T1, ATP-dependent translocase ABCB1 (Mus musculus, UniProt P21447). Description: P-gp activity was measured by a direct transport assay, using polarized LLC-mdr1a epithelial cells. The data set is classed as functional, cell-based. Conditions: human, epithelial cell.
In data set [2] the target is T1, ATP-dependent translocase ABCB1. Description: Inhibition of P-glycoprotein, mouse L-mdr1a expressed in LLC-PK1 epithelial cells using calcein-AM polarisation assay. Type of data set: functional, cell-based.
Data set [3] in a line: Partition coefficient (logP). The data set is classed as physicochemical. Conditions: octanol/water.
Data set [4] addresses T2, ATP-dependent translocase ABCB1 (Mus musculus, UniProt P06795). Description: TP_TRANSPORTER: inhibition of Calcein-AM efflux in Mdr1b-expressing LLC-PK1 cells. Type of data set: functional, cell-based.
In data set [5] the target is T3, ATP-dependent translocase ABCB1 (Homo sapiens, UniProt P08183). Description: P-gp activity was measured by a direct transport assay, using polarized LLC-MDR1 epithelial cells. Conditions: epithelial cell.
Data set [6] deals with T3, ATP-dependent translocase ABCB1. Description: Inhibition of P-glycoprotein using ATPase in MDR1 membranes. The data set is classed as functional, cell membranes.
Target sequence in this assay (P08183 whole entry): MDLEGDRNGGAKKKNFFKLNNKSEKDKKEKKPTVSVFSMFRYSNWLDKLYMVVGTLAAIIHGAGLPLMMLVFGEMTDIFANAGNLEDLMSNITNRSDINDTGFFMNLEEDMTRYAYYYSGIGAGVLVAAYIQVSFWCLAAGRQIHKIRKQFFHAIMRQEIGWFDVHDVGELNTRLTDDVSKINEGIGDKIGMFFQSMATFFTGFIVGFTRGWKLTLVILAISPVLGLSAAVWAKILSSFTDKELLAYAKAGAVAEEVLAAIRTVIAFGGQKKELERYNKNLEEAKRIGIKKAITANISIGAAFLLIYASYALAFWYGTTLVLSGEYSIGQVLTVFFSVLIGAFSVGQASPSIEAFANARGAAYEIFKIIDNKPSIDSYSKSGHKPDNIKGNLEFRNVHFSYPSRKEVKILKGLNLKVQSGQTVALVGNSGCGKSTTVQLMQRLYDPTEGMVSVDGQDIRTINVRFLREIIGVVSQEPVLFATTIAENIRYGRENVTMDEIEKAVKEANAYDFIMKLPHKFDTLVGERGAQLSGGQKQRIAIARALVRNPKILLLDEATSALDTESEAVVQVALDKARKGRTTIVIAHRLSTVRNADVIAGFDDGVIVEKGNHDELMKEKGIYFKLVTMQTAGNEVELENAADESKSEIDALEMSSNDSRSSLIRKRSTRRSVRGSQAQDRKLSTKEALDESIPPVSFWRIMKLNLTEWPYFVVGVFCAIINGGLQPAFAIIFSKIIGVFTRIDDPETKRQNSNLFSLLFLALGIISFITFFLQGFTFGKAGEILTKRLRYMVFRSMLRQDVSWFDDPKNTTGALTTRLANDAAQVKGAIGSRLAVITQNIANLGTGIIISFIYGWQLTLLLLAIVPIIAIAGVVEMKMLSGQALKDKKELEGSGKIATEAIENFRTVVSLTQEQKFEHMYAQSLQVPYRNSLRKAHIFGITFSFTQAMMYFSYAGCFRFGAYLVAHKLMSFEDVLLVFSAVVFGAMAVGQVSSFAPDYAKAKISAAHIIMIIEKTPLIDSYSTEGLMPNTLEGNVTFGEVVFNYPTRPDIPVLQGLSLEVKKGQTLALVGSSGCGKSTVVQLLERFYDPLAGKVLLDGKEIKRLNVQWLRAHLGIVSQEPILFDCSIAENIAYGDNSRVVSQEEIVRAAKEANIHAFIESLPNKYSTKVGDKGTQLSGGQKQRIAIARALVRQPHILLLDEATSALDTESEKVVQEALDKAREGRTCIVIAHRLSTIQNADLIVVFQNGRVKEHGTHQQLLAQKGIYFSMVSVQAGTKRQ
The target of data set [7] is T1, ATP-dependent translocase ABCB1. Description: TP_TRANSPORTER: inhibition of Calcein-AM efflux in Mdr1a-expressing LLC-PK1 cells. The data set is classed as functional, cell-based.
Data set [8] has as its target T3, ATP-dependent translocase ABCB1. Description: TP_TRANSPORTER: inhibition of Rhodamine 123 efflux in Caco-2 cells. The data set is classed as functional, cell-based. Set-up: concentration or dose not given beside the values. A general note: Caco-2 monolayers are a common model of the intestinal barrier.
Target sequence in this assay (P08183 whole entry): as above
Data set [9] deals with T1, ATP-dependent translocase ABCB1. Description: P-gp activity was measured by a direct transport assay, using polarized LLC-PK1 epithelial cells. The data set is classed as functional, cell-based. Conditions: human.
Data set [10] addresses T3, ATP-dependent translocase ABCB1. Briefly: Inhibition of P-gp was determined using rhodamine-assay in human CaCo-2 cells. Further details: concentration or dose not given beside the values. Type of data set: functional, cell-based.
Target sequence in this assay (P08183 whole entry): as above
In data set [11] the target is T4, Cytochrome P450 3A4 (Homo sapiens, UniProt P08684).
Description: Inhibition of human cytochrome P450 3A4
In data set [12] the target is T2, ATP-dependent translocase ABCB1. Briefly: Inhibition of P-glycoprotein, mouse L-mdr1b expressed in LLC-PK1 epithelial cells using calcein-AM polarisation assay. The data set is classed as functional, cell-based.
In data set [13] the target is T3, ATP-dependent translocase ABCB1. Briefly: Inhibition of P-glycoprotein, human L-MDR1 expressed in LLC-PK1 epithelial cells using calcein-AM polarisation assay. The data set is classed as functional, cell-based.
Target sequence in this assay (P08183 whole entry): as above
Data set [14] shares this target. Description: TP_TRANSPORTER: inhibition of Calcein-AM efflux in MDR1-expressing LLC-PK1 cells. Type of data set: functional, cell-based.
Target sequence in this assay (P08183 whole entry): as above
The target in data set [15] is T4, Cytochrome P450 3A4. The source holds these as a separate data set.
Description: Inhibition of human cytochrome P450 3A4

A word on the IC50: it is the midpoint of a concentration-inhibition curve. For orientation: logP means the decadic logarithm of the partition coefficient of the neutral form, usually between octanol and water. Broadly, the Inhibition is the change of the read-out against control, counted positive when it falls.

T1 sequence (P21447 whole entry): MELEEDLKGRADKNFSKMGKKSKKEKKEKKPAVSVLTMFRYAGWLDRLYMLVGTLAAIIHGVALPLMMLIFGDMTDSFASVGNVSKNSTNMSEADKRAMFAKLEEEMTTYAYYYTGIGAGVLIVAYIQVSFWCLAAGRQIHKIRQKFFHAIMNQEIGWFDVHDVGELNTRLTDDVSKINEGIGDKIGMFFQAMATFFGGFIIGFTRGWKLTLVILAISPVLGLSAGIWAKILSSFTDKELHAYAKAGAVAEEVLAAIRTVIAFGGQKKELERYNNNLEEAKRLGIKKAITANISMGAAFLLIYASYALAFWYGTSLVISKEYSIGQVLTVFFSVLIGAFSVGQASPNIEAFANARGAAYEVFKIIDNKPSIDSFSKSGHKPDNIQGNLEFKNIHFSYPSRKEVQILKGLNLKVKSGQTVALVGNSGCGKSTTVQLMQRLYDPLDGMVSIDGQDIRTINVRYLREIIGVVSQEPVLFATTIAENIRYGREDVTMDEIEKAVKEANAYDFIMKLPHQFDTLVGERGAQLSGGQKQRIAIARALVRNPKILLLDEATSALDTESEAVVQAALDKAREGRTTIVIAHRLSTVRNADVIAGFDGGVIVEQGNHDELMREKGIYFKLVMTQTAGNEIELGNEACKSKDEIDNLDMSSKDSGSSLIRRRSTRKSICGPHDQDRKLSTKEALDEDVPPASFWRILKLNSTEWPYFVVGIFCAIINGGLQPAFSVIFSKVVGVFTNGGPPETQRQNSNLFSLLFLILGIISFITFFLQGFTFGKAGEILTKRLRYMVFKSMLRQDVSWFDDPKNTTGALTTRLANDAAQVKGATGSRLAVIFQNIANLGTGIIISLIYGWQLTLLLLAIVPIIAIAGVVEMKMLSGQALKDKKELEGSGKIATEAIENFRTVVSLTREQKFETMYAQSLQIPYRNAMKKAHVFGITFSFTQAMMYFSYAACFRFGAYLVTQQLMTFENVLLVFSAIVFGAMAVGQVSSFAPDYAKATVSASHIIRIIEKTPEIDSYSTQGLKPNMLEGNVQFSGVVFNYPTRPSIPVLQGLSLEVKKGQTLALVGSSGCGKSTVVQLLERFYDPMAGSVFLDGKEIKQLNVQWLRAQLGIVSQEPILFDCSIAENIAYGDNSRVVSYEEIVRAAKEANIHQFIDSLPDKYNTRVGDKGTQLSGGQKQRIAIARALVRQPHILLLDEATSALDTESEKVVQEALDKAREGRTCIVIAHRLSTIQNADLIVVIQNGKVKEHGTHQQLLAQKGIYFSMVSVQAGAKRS
T4 sequence (P08684 whole entry): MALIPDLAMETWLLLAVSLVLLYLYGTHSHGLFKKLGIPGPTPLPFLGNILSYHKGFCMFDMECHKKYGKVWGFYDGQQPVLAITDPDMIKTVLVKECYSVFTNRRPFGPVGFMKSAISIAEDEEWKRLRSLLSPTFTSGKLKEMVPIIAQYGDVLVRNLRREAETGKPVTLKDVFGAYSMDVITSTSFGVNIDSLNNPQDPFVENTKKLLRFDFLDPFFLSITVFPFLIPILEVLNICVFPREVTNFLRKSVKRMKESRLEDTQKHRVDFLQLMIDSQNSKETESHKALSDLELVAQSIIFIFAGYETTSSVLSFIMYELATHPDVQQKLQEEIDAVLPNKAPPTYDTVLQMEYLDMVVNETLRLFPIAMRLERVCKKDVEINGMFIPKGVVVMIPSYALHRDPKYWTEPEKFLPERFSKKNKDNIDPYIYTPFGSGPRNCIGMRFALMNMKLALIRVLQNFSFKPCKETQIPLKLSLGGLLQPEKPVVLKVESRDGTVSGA
T2 sequence (P06795 whole entry): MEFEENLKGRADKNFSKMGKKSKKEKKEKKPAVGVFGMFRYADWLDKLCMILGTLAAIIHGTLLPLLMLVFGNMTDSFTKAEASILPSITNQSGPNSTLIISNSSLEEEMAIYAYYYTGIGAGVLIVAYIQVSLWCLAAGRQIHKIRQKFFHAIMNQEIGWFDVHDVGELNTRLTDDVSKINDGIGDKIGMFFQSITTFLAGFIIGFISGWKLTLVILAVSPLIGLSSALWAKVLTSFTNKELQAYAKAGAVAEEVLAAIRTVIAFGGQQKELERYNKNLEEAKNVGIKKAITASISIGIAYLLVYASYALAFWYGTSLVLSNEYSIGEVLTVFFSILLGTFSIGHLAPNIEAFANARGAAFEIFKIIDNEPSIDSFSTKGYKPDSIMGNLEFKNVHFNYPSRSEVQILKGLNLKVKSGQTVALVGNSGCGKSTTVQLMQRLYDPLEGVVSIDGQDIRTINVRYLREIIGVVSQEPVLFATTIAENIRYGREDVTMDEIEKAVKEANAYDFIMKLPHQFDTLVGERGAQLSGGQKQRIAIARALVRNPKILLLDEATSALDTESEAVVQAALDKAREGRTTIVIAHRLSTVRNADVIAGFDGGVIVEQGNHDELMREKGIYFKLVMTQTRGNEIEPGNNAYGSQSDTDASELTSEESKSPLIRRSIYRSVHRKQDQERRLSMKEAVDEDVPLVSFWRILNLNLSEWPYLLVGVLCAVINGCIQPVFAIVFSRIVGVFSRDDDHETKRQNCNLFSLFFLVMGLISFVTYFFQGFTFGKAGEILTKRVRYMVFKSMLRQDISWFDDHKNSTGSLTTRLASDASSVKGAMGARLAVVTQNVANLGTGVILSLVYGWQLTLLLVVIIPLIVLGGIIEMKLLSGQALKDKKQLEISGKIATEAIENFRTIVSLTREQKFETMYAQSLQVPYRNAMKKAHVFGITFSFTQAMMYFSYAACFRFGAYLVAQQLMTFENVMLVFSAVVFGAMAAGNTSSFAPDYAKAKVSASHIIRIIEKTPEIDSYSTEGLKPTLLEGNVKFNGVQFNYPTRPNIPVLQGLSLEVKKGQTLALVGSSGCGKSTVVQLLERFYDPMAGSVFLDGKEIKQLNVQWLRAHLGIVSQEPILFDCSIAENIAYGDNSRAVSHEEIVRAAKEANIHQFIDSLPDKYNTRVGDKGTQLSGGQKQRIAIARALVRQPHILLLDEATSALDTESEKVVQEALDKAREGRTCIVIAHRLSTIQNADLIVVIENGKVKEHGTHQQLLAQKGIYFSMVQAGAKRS

In the case of `CC1(C)SSC(C)(C)[C@@H](NC(=O)[C@@H](N)Cc2ccc(O)cc2)C(=O)NCC(=O)N[C@@H](Cc2ccccc2)C(=O)N[C@H]1C(=O)O`, the Ratio in [1] amounted to 0.9; in data set [5], 0.6; in data set [9], 0.8. For the same compound, the IC50 (in data set [2]; in [4]; in [7]; at Cytochrome P450 3A4 [11]; in [12]) was over 50 µM each time. In addition, in data set [3] (read-out: logP), the lipophilicity (logP) amounted to 1. For the same compound, the Activity in data set [6] was 4 nmol/min/mg; in data set [8] it was 0%. This compound also displayed an Inhibition in [10] of 0%.

Take `CC[C@H]1OC(=O)[C@H](C)[C@@H](O[C@H]2C[C@@](C)(OC)[C@@H](O)[C@H](C)O2)[C@H](C)[C@@H](O[C@@H]2O[C@H](C)C[C@H](N(C)C)[C@H]2O)[C@](C)(O)C[C@@H](C)C(=O)[C@H](C)[C@@H](O)[C@]1(C)O` [ERYTHROMYCIN]: the IC50 was over 50 µM in data set [2] and 33 µM at Cytochrome P450 3A4 [11]. In data set [3] (read-out: logP), the logP stood at 2.5. Also, in [6], the Activity is 4 nmol/min/mg.

As for `Cc1ncc2n1-c1ccc(Cl)cc1C(c1ccccc1F)=NC2` [MIDAZOLAM], the IC50 is over 50 µM in data set [13]; over 50 µM in data set [2]; 33 µM in [4]; over 50 µM in [7]; over 50 µM in data set [14]; 33 µM in data set [12]. In addition, in [3] (read-out: logP), the log partition coefficient (logP) was found to be 3.3. Further, the figures for the Activity in data set [6] and in [8] were 6 nmol/min/mg and 12%, respectively. Moreover, the Inhibition in data set [10] stood at 12%.

Consider `CC1(C)S[C@@H]2[C@H](NC(=O)Cc3ccccc3)C(=O)N2[C@H]1C(=O)O` [PENICILLIN G], for which the Ratio in data set [1] was found to be 1.1.

IVERMECTIN: the concentration for half-maximal inhibition (IC50) is 0.1 µM in data set [13] (llc-pk1); 0.5 µM in data set [2] (llc-pk1); 0.5 µM in data set [4] (llc-pk1); 0.5 µM in data set [7] (llc-pk1); 0.1 µM in [14] (llc-pk1); over 50 µM at Cytochrome P450 3A4 [15]. Besides, the half-maximal inhibitory concentration (IC50) in data set [12] (llc-pk1) was 0.5 µM. The same compound displayed a logP in data set [3] of 4. The Activity in [6] is -3.4 nmol/min/mg; in [8], 34%. The compound also showed an Inhibition in [10] of 34%.

(Values after ChEMBL document CHEMBL1136781, “Comparison of in vitro P-glycoprotein screening assays: recommendations for their use in drug discovery” (J Med Chem, 2003).)
